Laboratory results as given in patent publication US7807659B2, “Caspase inhibitors and uses thereof” (Vertex Pharmaceuticals Incorporated, priority 2001, dated 2010).
Square brackets hold non-standard residues; d marks the D form. Peptide text beside a SMILES is read from it. * marks the point of attachment. ξ: configuration not given here. Pip = O=C(O)[C@@H]1CCCCN1; ξD = NC(CC(=O)O)C(=O)O; Bz = O=C(c1ccccc1)*; CH2F = FC*

Key:
Assay type in all cases: cell-based
[1] = test system: caspase-8-mediated apoptotic pathway (Fas induced apoptosis); assay: Anti-Fas induced apoptosis assay
Excerpt: Cellular apoptosis can be induced by the binding of Fas ligand (FasL) to its receptor, CD95 (Fas). Conditions for an assay to measure the effect of compounds on the inhibition of the caspase-8-mediated apoptotic pathway can be found in WO01/42216.

TNF-alpha = assay: Inhibition of TNF release from whole blood (LPS induced); settings: Homo sapiens, LPS 5 ng/ml, overnight, ELISA
Experimental: Human blood was freshly drawn from healthy donors and collected in vacutainers. Blood was diluted 1:2 in PBS (tissue culture, pyrogen free) in a sterile bottle and inverted to mix well. Aliquots of 0.5 ml of blood mixture were dispensed into cluster tubes in 96 well format.
Dilutions of the test compounds were prepared in RPMI by taking 100 mM DMSO stocks of the compounds and diluting 1:10 in RPMI medium in eppendorfs, to give a 10 mM stock. 1:5 serial dilutions were prepared from the stock solutions.
LPS was kept at a frozen stock (−20 degrees C.) at 1 mg/ml in PBS and then diluted to 1:10 with RPMI medium and finally diluted in the medium again 1:350. 50 μl of each test compound (first concentration was 100 μM) were added to the blood samples and then stimulated with 10 μl LPS (final concentration in the well is 5 ng/ml). The contents were gently mixed using an 8 well multi-channel pipette and incubated at 37° C. over night. At the end of the incubation time, contents were gently mixed, then spun down at 1000×g for 5 mins at 20° C. The serum supernatants were transferred to a fresh plate without disturbing the RBCs and diluted 1:2 with the diluent RD6C.
TNF-alpha levels of supernatants were assayed using the R+D systems ELISA kit, using R+D systems protocol. Samples were read at 450 nm.

[2] = test system: IL-1β secretion from peripheral blood mononuclear cells; assay: Inhibition of IL-1β secretion from mixed population of peripheral blood mononuclear cells (PBMC); settings: human PBMC, mature IL-1β in supernatant
Excerpt: Processing of pre-IL-1β by caspase-1 can be measured in cell culture using a variety of cell sources. Human PBMC obtained from healthy donors provides a mixed population of lymphocyte and mononuclear cells that produce a spectrum of interleukins and cytokines in response to many classes of physiological stimulators. The assay conditions used for inhibition of IL-1β secretion from mixed population of peripheral blood mononuclear cells can be found in WO01/42216.
The inhibitory potency of the compounds can be represented by an IC50 value, which is the concentration of inhibitor at which 50% of the mature IL-1β is detected in the supernatant as compared to the positive controls.

IC50 [1]	IC50 (TNF-alpha; exact value in brackets)	IC50 (TNF-alpha; stated as bound)	IC50 [2]	SMILES
< 0.05 µM				O=C(O)CC(NC(=O)[C@@H]1CCCCN1C(=O)c1ccccc1)C(=O)CF (stereo partly drawn) [Compound 3, [3S/R,(2S)]-5-Fluoro-4-oxo-3-[1-benzoyl-2-piperidinecarboxamido]-pentanoic acid] (Bz-[Pip]-[ξD]-CH2F)
	5.04 µM	< 6 µM	< 0.5 µM	O=C(O)CC(NC(=O)[C@@H]1CCCCN1C(=O)c1ccc(-c2cccc(C(F)(F)F)c2)o1)C(=O)CF (stereo partly drawn) [Compound 10, [3S/R,(2S)]-5-Fluoro-4-oxo-3-[1-[2-(3-trifluoromethyl-phenyl)-furan-4-carbonyl]-2-piperidinecarboxamido]-pentanoic acid]
